Publication PMC4610730 (Journal of medicinal chemistry, 2015)

How the values were obtained:
[1] = LC-MS analysis of aged DMSO stocks; type: physicochemical; conditions: DMSO stock, LC-MS on day 38; for Decomposition product observed: carboxylic acid (analogous to 6) / Decomposition product observed: enone (analogous to 8) / Decomposition product observed: lactam (analogous to 5): Table 1; for Decomposition product observed: bis-enone (equivalent to 8) / Decomposition product observed: carboxylic acid (equivalent to 6) / Decomposition product observed: lactam (equivalent to 5): Table 2
APOBEC3G (A3G) = APOBEC3G (A3G) (Homo sapiens, UniProt Q9HC16); experiment: Fluorescence-based ssDNA C-to-U DNA deaminase assay, A3G; type: biochemical; conditions: for A3G inhibitory activity: substructures of the decomposition products, data not shown
APOBEC3G (A3G), sequence (Q9HC16 whole entry): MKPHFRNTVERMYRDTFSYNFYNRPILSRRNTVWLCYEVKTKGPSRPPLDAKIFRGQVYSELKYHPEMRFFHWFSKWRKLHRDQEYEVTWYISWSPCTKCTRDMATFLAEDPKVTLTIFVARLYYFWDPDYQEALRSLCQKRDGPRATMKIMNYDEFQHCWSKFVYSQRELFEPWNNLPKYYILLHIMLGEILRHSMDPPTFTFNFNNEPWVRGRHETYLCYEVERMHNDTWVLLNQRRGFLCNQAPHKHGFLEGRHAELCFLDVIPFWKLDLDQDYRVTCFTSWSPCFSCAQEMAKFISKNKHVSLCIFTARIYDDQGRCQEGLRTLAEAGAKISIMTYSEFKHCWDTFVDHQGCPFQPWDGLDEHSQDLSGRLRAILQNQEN

[2] = Storage stability of isolated decomposition products; type: physicochemical; conditions: significant periods of time
APOBEC3A (A3A) = APOBEC3A (A3A) (Homo sapiens, UniProt P31941); experiment: Fluorescence-based ssDNA C-to-U DNA deaminase assay, A3A; type: biochemical
APOBEC3A (A3A), sequence (P31941 whole entry): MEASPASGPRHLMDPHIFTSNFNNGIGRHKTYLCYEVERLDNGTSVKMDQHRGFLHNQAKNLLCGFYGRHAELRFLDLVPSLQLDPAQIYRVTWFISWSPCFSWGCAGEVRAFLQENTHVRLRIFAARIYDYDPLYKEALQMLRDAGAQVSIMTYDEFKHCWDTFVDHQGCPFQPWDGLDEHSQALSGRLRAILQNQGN

[3] = Aging of 1 under photochemical conditions; type: physicochemical; conditions: 10 mM DMSO, visible light 300 W, N2 atmosphere (balloon, 1 atm), 9 h, no sensitizer
[4] = Aging of DMSO stocks of 1 under varied conditions; type: physicochemical
[5] = freshly synthesized and solubilized, day 0, dose response up to 200 μM

Row | Decomposition product observed: carboxylic acid (analogous to 6) [1] | Decomposition product observed: enone (analogous to 8) [1] | Decomposition product observed: lactam (analogous to 5) [1] | Decomposition product observed: bis-enone (equivalent to 8) [1] | Decomposition product observed: carboxylic acid (equivalent to 6) [1] | Decomposition product observed: lactam (equivalent to 5) [1] | Compound | other results
1 | - | + 226.2 (226.2) | - |  |  |  | Cc1ccc(-c2ccc3ccccc3n2)o1 [compound 23] | 
2 | + 218.1 (218.1) | + 270.1 (270.1) | + 190.1 (190.1) |  |  |  | Cc1ccc(-c2cc(C(=O)O)c3ccccc3n2)o1 [compound 12, 2-(5-Methylfuran-2-yl)quinoline-4-carboxylic acid] | 
3 | + 377.2 (377.1) | + 415.1 (415.1) | - |  |  |  | O=C(Nc1nnc(-c2ccncc2)s1)c1cc(-c2ccco2)cc2ccccc12 [compound 21] | 
4 |  |  |  |  |  |  | Nc1nnc(-c2ccncc2)s1 [compound 4, 5-(pyridin-4-yl)-1,3,4-thiadiazol-2-amine] | A3G inhibitory activity (APOBEC3G (A3G)): inactive
5 | + 377.2 (377.1) | + 429.2 (429.1) | - |  |  |  | Cc1ccc(-c2cc(C(=O)Nc3nnc(-c4ccncc4)s3)c3ccccc3c2)o1 [compound 19] | 
6 |  |  |  | + 403.1 (403.1) | + 351.2 (351.1) | + 323.1 (323.1) | Cc1ccc(-c2cc(C(=O)NCc3ccc4c(c3)OCO4)c3ccccc3n2)o1 [compound 29] | 
7 | - | - | - |  |  |  | O=C(O)c1ccnc(-c2ccco2)c1 [compound 18] | 
8 |  |  |  |  |  |  | O=C(O)c1cc(C(=O)O)c2ccccc2n1 [quinoline-2,4-carboxylic acid] | A3G inhibitory activity (APOBEC3G (A3G)): inactive
9 | - | - | + 190.2 (190.1) |  |  |  | O=C(O)c1cc(-c2ccco2)nc2ccccc12 [compound 14] | 
10 | - | + 220.1 (220.1) | - |  |  |  | Cc1ccc(-c2cc(C(=O)O)ccn2)o1 [compound 16] | 
11 |  |  |  | + 403.2 (403.2) | + 351.2 (351.1) | + 323.1 (323.1) | COc1ccc(CCNC(=O)c2cc(-c3ccc(C)o3)nc3ccccc23)cc1 [compound 28] | 
12 |  |  |  | - | + 357.1 (357.1) | + 329.1 (329.1) | O=C(NNC(=O)c1cc(-c2ccco2)nc2ccccc12)NC1CCCCC1 [compound 30] | 
13 |  |  |  | + 351.2 (351.2) | + 299.1 (299.1) | + 271.1 (271.1) | Cc1ccc(-c2cc(C(=O)NC3CCCCC3)c3ccccc3n2)o1 [compound 27] | 
14 | + 378.2 (378.1) | - | + 350.2 (350.1) |  |  |  | O=C(Nc1nnc(-c2ccncc2)s1)c1cc(-c2ccco2)nc2ccccc12 [compound 13] | 
15 | - | + 254.1 (254.1) | - |  |  |  | O=C(O)c1cc(-c2ccco2)cc2ccccc12 [compound 22] | 
16 | - | - | - |  |  |  | c1coc(-c2ccc3ccccc3n2)c1 [compound 24] | 
17 | - | + 269.2 (269.1) | - |  |  |  | Cc1ccc(-c2cc(C(=O)O)c3ccccc3c2)o1 [compound 20] | 
18 | + 328.2 (328.0) | + 380.2 (380.1) | - |  |  |  | Cc1ccc(-c2cc(C(=O)Nc3nnc(-c4ccncc4)s3)ccn2)o1 [compound 15] | 
19 |  |  |  |  |  |  | O=C(O)c1cc(O)nc2ccccc12 [2-Hydroxyquinonline-4-carboxylic acid] | A3G inhibitory activity (APOBEC3G (A3G)): inactive
20 |  |  |  |  |  |  | CC(=O)/C=C\C(=O)c1cc(C(=O)Nc2nnc(-c3ccncc3)s2)c2ccccc2n1 [compound 8, (Z)-2-(4-oxopent-2-enoyl)-N-(5-(pyridin-4-yl)-1,3,4-thiadiazol-2-yl)quinoline-4-carboxamide] | stability for storage in organic solvents [2]: not stable
21 |  |  |  | + 360.2 (360.1) | + 308.1 (308.1) | + 280.1 (280.1) | Cc1cccc(NC(=O)c2cc(-c3ccc(C)o3)nc3ccccc23)n1 [compound 26] | 
22 |  |  |  | + 461.1 (461.1) | + 409.1 (409.1) | + 381.1 (381.1) | COC(=O)c1cc(NC(=O)c2cc(-c3ccc(C)o3)nc3ccccc23)cc(C(=O)OC)c1 [compound 32] | 
23 |  |  |  | + 416.1 (416.1) | + 364.1 (364.1) | + 336.1 (336.1) | Cc1ccc(-c2cc(C(=O)N3CCN(S(C)(=O)=O)CC3)c3ccccc3n2)o1 [compound 31] | 
24 |  |  |  | + 367.2 (367.2) | + 315.1 (315.1) | + 287.1 (287.1) | Cc1ccc(-c2cc(C(=O)NC(C)C3CCCO3)c3ccccc3n2)o1 (stereo not drawn) [compound 25] | 
25 | - | - | - |  |  |  | O=C(Nc1nnc(-c2ccncc2)s1)c1ccnc(-c2ccco2)c1 [compound 17] | 
26 | + 378.1 (378.1) | + 430.1 (430.1) | + 350.1 (350.1) | + 430.1 (430.1) | + 378.1 (378.1) | + 350.1 (350.1) | Cc1ccc(-c2cc(C(=O)Nc3nnc(-c4ccncc4)s3)c3ccccc3n2)o1 [compound 1, 2-(5-Methylfuran-2-yl)-N-(5-(pyridin-4-yl)-1,3,4-thiadiazol-2-yl)quinoline-4-carboxamide] | inhibitory activity against A3A (APOBEC3A (A3A); aged DMSO stock of synthesized compound): never recovered; A3A inhibition (APOBEC3A (A3A); [5]): no inhibition; A3G inhibition (APOBEC3G (A3G); [5]): no inhibition; decomposition under irradiation [3]: virtually no decomposition; decomposition of DMSO stock ([4]; 10 mM DMSO stock aged in the dark): no decomposition; decomposition of DMSO stock ([4]; 10 mM DMSO stock aged in the presence of NaN3): no decomposition; decomposition of DMSO stock ([4]; 10 mM DMSO stock aged under inert conditions (N2)): drastically reduced decomposition; rate of decomposition versus storage temperature ([4]; DMSO stock stored at -20 °C vs. rt vs. 37 °C, data not shown): same rate regardless of the temperature
